Data as given in ChEMBL document CHEMBL1134038, “New triterpenes, myrrhanol A and myrrhanone A, from guggul-gum resins, and their potent anti-inflammatory effect on adjuvant-induced air-pouch granuloma of mice” (2001).

Tests used:
Type in all cases: functional
[1] = tested on: Mus musculus; assay: Anti-inflammatory effect on inflammatory process I (exudation: pouch fluid weight) at a log dose of -3g/kg, ip, in adjuvant-induced air-pouch granuloma of mice(*)
[2] = tested on: Mus musculus; assay: Weak anti-inflammatory and inflammatory effect on inflammatory process II (migration: inflammatory cell count) at a log dose of -3g/kg, ip, in adjuvant-induced air-pouch granuloma of mice(**)
[3] = species: Mus musculus; assay: Inhibitory dose required against exudation (pouch fluid weight) tested for antiinflammatory activity in mice(parentheses value represents 95% confidence limits); settings: read-out: ID50 (the source's name)
[4] = tested on: Mus musculus; assay: Inhibitory effect on inflammatory process I (exudation: pouch fluid weight) at a log dose of -5.6mol/kg, ip relative to hydrocortisone on adjuvant-induced air-pouch granulomas of mice
[5] = tested on: Mus musculus; assay: Anti-inflammatory effect on inflammatory process III (angiogenesis: carmine content) at a log dose of -2.25g/kg, ip, in adjuvant-induced air-pouch granuloma of mice(*)
[6] = tested on: Mus musculus; assay: Anti-inflammatory effect on inflammatory process IV (granuloma formation) at a log dose of -3g/kg, ip, in adjuvant-induced air-pouch granuloma of mice(*)
[7] = tested on: Mus musculus; assay: Weak anti-inflammatory and inflammatory effect on inflammatory process III (angiogenesis: carmine content) at a log dose of -1.5g/kg, ip, in adjuvant-induced air-pouch granuloma of mice(**)
[8] = tested on: Mus musculus; assay: Weak anti-inflammatory and inflammatory effect on inflammatory process I (exudation: pouch fluid weight) at a log dose of -1.5g/kg, ip, in adjuvant-induced air-pouch granuloma of mice(**)
[9] = tested on: Mus musculus; assay: Weak anti-inflammatory and inflammatory effect on inflammatory process II (migration: inflammatory cell count) at a log dose of -2.2g/kg, ip, in adjuvant-induced air-pouch granuloma of mice(**)
[10] = tested on: Mus musculus; assay: Inhibitory effect on inflammatory process I (exudation: pouch fluid weight) at a log dose of -5.25mol/kg, ip relative to hydrocortisone on adjuvant-induced air-pouch granulomas of mice
[11] = tested on: Mus musculus; assay: Weak anti-inflammatory and inflammatory effect on inflammatory process I (exudation: pouch fluid weight) at a log dose of -2.2g/kg, ip, in adjuvant-induced air-pouch granuloma of mice(**)
[12] = tested on: Mus musculus; assay: Anti-inflammatory effect on inflammatory process III (angiogenesis: carmine content) at a log dose of -3g/kg, ip, in adjuvant-induced air-pouch granuloma of mice(*)
[13] = tested on: Mus musculus; assay: Anti-inflammatory effect on inflammatory process II (migration: inflammatory cell count) at a log dose of -3g/kg, ip, in adjuvant-induced air-pouch granuloma of mice(*)
[14] = tested on: Mus musculus; assay: Weak anti-inflammatory and inflammatory effect on inflammatory process I (exudation: pouch fluid weight) at a log dose of -3g/kg, ip, in adjuvant-induced air-pouch granuloma of mice(**)
[15] = tested on: Mus musculus; assay: Inhibitory effect on inflammatory process III (angiogenesis: carmine content) at a log dose of -5.25mol/kg, ip relative to hydrocortisone on adjuvant-induced air-pouch granulomas of mice
[16] = tested on: Mus musculus; assay: Inhibitory effect on inflammatory process III (angiogenesis: carmine content) at a log dose of -6mol/kg, ip relative to hydrocortisone on adjuvant-induced air-pouch granulomas of mice
[17] = tested on: Mus musculus; assay: Anti-inflammatory effect on inflammatory process I (exudation: pouch fluid weight) at a log dose of -2.25g/kg, ip, in adjuvant-induced air-pouch granuloma of mice(*)
[18] = tested on: Mus musculus; assay: Anti-inflammatory effect on inflammatory process IV (granuloma formation) at a log dose of -1.5g/kg, ip, in adjuvant-induced air-pouch granuloma of mice(*)
[19] = tested on: Mus musculus; assay: Inhibitory effect on inflammatory process II (migration: inflammatory cell count) at a log dose of -5.6mol/kg, ip relative to hydrocortisone on adjuvant-induced air-pouch granulomas of mice
[20] = tested on: Mus musculus; assay: Inhibitory effect on inflammatory process II (migration: inflammatory cell count) at a log dose of -5.25mol/kg, ip relative to hydrocortisone on adjuvant-induced air-pouch granulomas of mice
[21] = tested on: Mus musculus; assay: Weak anti-inflammatory and inflammatory effect on inflammatory process IV (granuloma formation) at a log dose of -2.2g/kg, ip, in adjuvant-induced air-pouch granuloma of mice(**)
[22] = tested on: Mus musculus; assay: Anti-inflammatory effect on inflammatory process II (migration: inflammatory cell count) at a log dose of -1.5g/kg, ip, in adjuvant-induced air-pouch granuloma of mice(*)
[23] = tested on: Mus musculus; assay: Weak anti-inflammatory and inflammatory effect on inflammatory process IV (granuloma formation) at a log dose of -1.5g/kg, ip, in adjuvant-induced air-pouch granuloma of mice(**)
[24] = tested on: Mus musculus; assay: Weak anti-inflammatory and inflammatory effect on inflammatory process II (migration: inflammatory cell count) at a log dose of -1.5g/kg, ip, in adjuvant-induced air-pouch granuloma of mice(**)
[25] = tested on: Mus musculus; assay: Weak anti-inflammatory and inflammatory effect on inflammatory process III (angiogenesis: carmine content) at a log dose of -2.2g/kg, ip, in adjuvant-induced air-pouch granuloma of mice(**)
[26] = tested on: Mus musculus; assay: Inhibitory effect on inflammatory process III (angiogenesis: carmine content) at a log dose of -5.6mol/kg, ip relative to hydrocortisone on adjuvant-induced air-pouch granulomas of mice
[27] = tested on: Mus musculus; assay: Weak anti-inflammatory and inflammatory effect on inflammatory process III (angiogenesis: carmine content) at a log dose of -3g/kg, ip, in adjuvant-induced air-pouch granuloma of mice(**)
[28] = tested on: Mus musculus; assay: Inhibitory effect on inflammatory process II (migration: inflammatory cell count) at a log dose of -6mol/kg, ip relative to hydrocortisone on adjuvant-induced air-pouch granulomas of mice
[29] = species: Mus musculus; assay: Inhibitory dose required against angiogenesis (carmine content) tested for antiinflammatory activity in mice(parentheses value represents 95% confidence limits); settings: read-out: ID50 (the source's name)
[30] = tested on: Mus musculus; assay: Inhibitory effect on inflammatory process IV (granuloma formation) at a log dose of -5.25mol/kg, ip relative to hydrocortisone on adjuvant-induced air-pouch granulomas of mice
[31] = tested on: Mus musculus; assay: Anti-inflammatory effect on inflammatory process III (angiogenesis: carmine content) at a log dose of -1.5g/kg, ip, in adjuvant-induced air-pouch granuloma of mice(*)
[32] = tested on: Mus musculus; assay: Inhibitory effect on inflammatory process I (exudation: pouch fluid weight) at a log dose of -6mol/kg, ip relative to hydrocortisone on adjuvant-induced air-pouch granulomas of mice
[33] = tested on: Mus musculus; assay: Inhibitory effect on inflammatory process IV (granuloma formation) at a log dose of -5.6mol/kg, ip relative to hydrocortisone on adjuvant-induced air-pouch granulomas of mice
[34] = tested on: Mus musculus; assay: Anti-inflammatory effect on inflammatory process I (exudation: pouch fluid weight) at a log dose of -1.5g/kg, ip, in adjuvant-induced air-pouch granuloma of mice(*)
[35] = tested on: Mus musculus; assay: Inhibitory effect on inflammatory process IV (granuloma formation) at a log dose of -6mol/kg, ip relative to hydrocortisone on adjuvant-induced air-pouch granulomas of mice
[36] = species: Mus musculus; assay: Inhibitory dose required against granuloma formation tested for antiinflammatory activity in mice(parentheses value represents 95% confidence limits); settings: read-out: ID50 (the source's name)
[37] = tested on: Mus musculus; assay: Weak anti-inflammatory and inflammatory effect on inflammatory process IV (granuloma formation) at a log dose of -3g/kg, ip, in adjuvant-induced air-pouch granuloma of mice(**)
[38] = tested on: Mus musculus; assay: Anti-inflammatory effect on inflammatory process II (migration: inflammatory cell count) at a log dose of -2.25g/kg, ip, in adjuvant-induced air-pouch granuloma of mice(*)
[39] = tested on: Mus musculus; assay: Anti-inflammatory effect on inflammatory process IV (granuloma formation) at a log dose of -2.25g/kg, ip, in adjuvant-induced air-pouch granuloma of mice(*)
[40] = species: Mus musculus; assay: Inhibitory dose required against migration (inflammatory cell count) tested for antiinflammatory activity in mice(parentheses value represents 95% confidence limits); settings: read-out: ID50 (the source's name)

## C/C(=C\CC/C(C)=C/CC/C(C)=C/CC[C@@H]1[C@@]2(C)CC[C@H](O)C(C)(C)C2CC[C@@]1(C)O)CO (stereo partly specified)
[1]
  Relative amount: 45%
[2]
  Relative amount: 100%
[3]
  ED50: 1.75 µmol/kg
[4]
  Relative amount: <20%
[5]
  Relative amount: <52%
[6]
  Relative amount: <70%
[7]
  Relative amount: 50%
[8]
  Relative amount: 25%
[9]
  Relative amount: 70%
[10]
  Relative amount: <5%
[11]
  Relative amount: 27%
[12]
  Relative amount: <63%
[13]
  Relative amount: 80%
[14]
  Relative amount: 100%
[15]
  Relative amount: <30%
[16]
  Relative amount: 87%
[17]
  Relative amount: 35%
[18]
  Relative amount: <55%
[19]
  Relative amount: 90%
[20]
  Relative amount: 115%
[21]
  Relative amount: 62%
[22]
  Relative amount: 60%
[23]
  Relative amount: 60%
[24]
  Relative amount: 65%
[25]
  Relative amount: 65%
[26]
  Relative amount: <47%
[27]
  Relative amount: 75%
[28]
  Relative amount: 105%
[29]
  ED50: 2.8 µmol/kg
[30]
  Relative amount: <50%
[31]
  Relative amount: <50%
[32]
  Relative amount: 70%
[33]
  Relative amount: <75%
[34]
  Relative amount: <15%
[35]
  Relative amount: 85%
[36]
  ED50: 5.83 µmol/kg
[37]
  Relative amount: 80%
[38]
  Relative amount: 65%
[39]
  Relative amount: <65%

## C[C@]12CCC(=O)C=C1CCC1[C@@H]2[C@@H](O)C[C@@]2(C)[C@H]1CC[C@]2(O)C(=O)CO (single isomer, unassigned) [HYDROCORTISONE]
[3]
  ED50: 6.31 µmol/kg
[29]
  ED50: 22.1 µmol/kg
[36]
  ED50: 29.2 µmol/kg
[40]
  ED50: 11.7 µmol/kg

## C/C(=C\CC/C(C)=C/CC/C(C)=C/CC[C@@H]1[C@@]2(C)CCC(=O)C(C)(C)C2CC[C@@]1(C)O)CO (stereo partly specified)
[1]
  Relative amount: 75%
[2]
  Relative amount: 85%
[5]
  Relative amount: 83%
[6]
  Relative amount: 80%
[7]
  Relative amount: 180%
[8]
  Relative amount: 250%
[9]
  Relative amount: 170%
[11]
  Relative amount: 225%
[12]
  Relative amount: 83%
[13]
  Relative amount: 95%
[14]
  Relative amount: 70%
[16]
  Relative amount: 105%
[17]
  Relative amount: 65%
[18]
  Relative amount: <55%
[21]
  Relative amount: 100%
[22]
  Relative amount: 70%
[23]
  Relative amount: 100%
[24]
  Relative amount: 175%
[25]
  Relative amount: 185%
[27]
  Relative amount: 90%
[28]
  Relative amount: 75%
[31]
  Relative amount: <50%
[32]
  Relative amount: 90%
[34]
  Relative amount: 60%
[35]
  Relative amount: 75%
[37]
  Relative amount: 65%
[38]
  Relative amount: 85%
[39]
  Relative amount: <68%
